Laboratory results taken from PubChem BioAssay (NCI).
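Values below derive from 48-hour exposures of cells grown in 96-well plates, with endpoints linearly interpolated between the two concentrations bracketing the appropriate inhibition level. Definition used: TGI = concentration required for complete inhibition of growth.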 Where a SMILES comes first, the peptide text is derived from it.

Key:
Assay in all cases: inhibition of tumour cell growth, NCI panel, 48 h
786-0 renal = test system: 786-0 renal
DU-145 prostate = test system: DU-145 prostate
EKVX NSCLC = test system: EKVX NSCLC
HCC-2998 colon = test system: HCC-2998 colon
HCT-116 colon = test system: HCT-116 colon
HL-60(TB) leukemia = test system: HL-60(TB) leukemia
HOP-92 NSCLC = test system: HOP-92 NSCLC
KM12 colon = test system: KM12 colon
MALME-3M melanoma = test system: MALME-3M melanoma
MOLT-4 leukemia = test system: MOLT-4 leukemia
NCI-H226 lung = test system: NCI-H226 lung
NCI-H460 lung = test system: NCI-H460 lung
OVCAR-8 ovarian = test system: OVCAR-8 ovarian
SF-539 CNS = test system: SF-539 CNS
SK-MEL-2 melanoma = test system: SK-MEL-2 melanoma
SK-OV-3 ovarian = test system: SK-OV-3 ovarian
SNB-75 CNS = test system: SNB-75 CNS
UACC-257 melanoma = test system: UACC-257 melanoma
UACC-62 melanoma = test system: UACC-62 melanoma
NCI-H522 lung = test system: NCI-H522 lung

SMILES	TGI (786-0 renal) [µM]	TGI (DU-145 prostate) [µM]	TGI (EKVX NSCLC) [µM]	TGI (HCC-2998 colon) [µM]	TGI (HCT-116 colon) [µM]	TGI (HL-60(TB) leukemia) [µM]	TGI (HOP-92 NSCLC) [µM]	TGI (KM12 colon) [µM]	TGI (MALME-3M melanoma) [µM]	TGI (MOLT-4 leukemia) [µM]	TGI (NCI-H226 lung) [µM]	TGI (NCI-H460 lung) [µM]	TGI (OVCAR-8 ovarian) [µM]	TGI (SF-539 CNS) [µM]	TGI (SK-MEL-2 melanoma) [µM]	TGI (SK-OV-3 ovarian) [µM]	TGI (SNB-75 CNS) [µM]	TGI (UACC-257 melanoma) [µM]	TGI (UACC-62 melanoma) [µM]	TGI (NCI-H522 lung) [µM]
Clc1ccc(C2=C(c3ccccc3)C(c3ccc(Cl)cc3)N3C(=N[C@H]4CCCC[C@@H]43)N2)cc1 (some centres undefined)	27.8	25.9	24.8	10.4	14.7	10.9	21.4	23.5	34.8	22.7	47.9	11.1	29.5	29.7	29.9	30.8	30	32.2	31.4	–
CC1=NN(c2cccc(Cl)c2)C(=N/c2nc3ccccc3s2)/C1=C\c1cccs1	> 100	> 100	> 100	> 100	> 100	30.6	> 100	> 100	–	95.2	> 100	> 100	> 100	> 100	65.4	> 100	> 100	> 100	–	93.8
CC(=O)C1=C(C)N2C(=NC3=C(CCc4ccccc43)C2c2cccc(Br)c2)S1 (centres undefined)	> 100	> 100	> 100	> 100	> 100	> 100	> 100	> 100	–	–	> 100	–	> 100	> 100	> 100	> 100	> 100	> 100	> 100	–
O=[N+]([O-])C(=C(N1CCCCC1)N1CCCCC1)/C(Cl)=C(\Cl)[N+](=O)[O-]	10.2	7.72	30	55.6	7.54	–	6.6	41.7	6.28	–	45.7	59.9	23.2	25.8	35.1	> 59.8	32.9	15.5	29.2	3.37
C=C1CC2CC(=O)C(O)C(C1)C2 (centres undefined)	> 100	> 100	> 100	> 100	> 100	> 100	> 100	> 100	–	> 100	> 100	> 100	> 100	> 100	–	> 100	> 100	> 100	> 100	> 100
N#C/C(C(=S)Nc1ccccc1)=C(/N)N1CCCC1	> 100	> 100	> 100	> 100	> 100	> 100	> 100	> 100	> 100	> 100	> 100	> 100	> 100	> 100	> 100	–	–	> 100	> 100	> 100
Cc1coc2c1C(=O)C(=O)c1c-2ccc2c1CCCC2(C)C	8.62	9.9	> 100	21.7	4.27	–	> 100	> 92.3	2.3	> 100	11.2	10.4	> 100	7.59	6.94	> 100	16.3	2.37	3.32	3.98
O=P(c1ccccc1)(c1ccccc1)c1ccc2c(c1)OCCOCCOCCOCCO2	> 100	> 100	> 100	> 100	> 100	> 100	–	> 100	> 100	> 100	> 100	> 100	> 100	> 100	–	> 100	> 100	–	> 100	> 100
Nc1ncnc2c1ncn2C1C=CC(COS(N)(=O)=O)C1 (centres undefined)	> 100	> 100	> 100	> 100	> 100	30.1	87.3	> 100	> 100	> 100	> 100	> 100	> 100	7.12	> 100	> 100	> 100	> 100	> 100	–
CN(C)C(=S)N/N=C(\C(=N/NC(=S)N(C)C)c1ccccn1)c1ccccn1	27	10.8	36.7	37.5	25.1	–	22.1	33.6	33.9	–	28.2	22.7	77.7	> 100	36.7	30.4	27.4	50	32.8	9.26
CCOC(=O)c1c(-c2ccccc2)nc2c(OC)nccn12	> 100	> 100	> 100	> 100	> 100	> 100	–	> 100	> 100	> 100	> 100	> 100	> 100	> 100	> 100	> 100	> 100	> 100	> 100	> 100
COc1ccc2nc3cc([N+](=O)[O-])ccc3c(Nc3ccc(S(=O)(=O)N=C(N)N)cc3)c2c1	> 100	> 100	> 100	39.3	80.5	31.3	77.8	57.5	28.5	14.7	> 100	25	–	> 100	44.4	> 100	–	> 100	46.9	41.3
CNC(=O)CNC(=O)C(NC(=O)CNC(=O)C1CCCN1C(=O)C(C)NC(=O)C(NC(C)=O)C(C)C)C(C)C (centres undefined) (Ac-VAPGVG-NHMe; configuration not given here)	> 100	> 100	> 100	> 100	> 100	> 100	> 100	–	> 100	> 100	–	> 100	> 100	> 100	> 100	> 100	–	> 100	> 100	> 100
CC1C2(C)OC(=N)C(C#N)(C(C)O2)C1(C#N)C#N (centres undefined)	62	87	> 100	50.5	65	41.1	37.6	> 100	62.3	> 100	> 100	42.8	> 100	47.1	46.6	> 100	> 100	46	43.8	–
COC(=O)c1cc(C)ccc1C1CN=NC12Cc1cccc(C)c1C2=O (centres undefined)	> 100	> 100	95.6	> 100	70.5	32.8	> 100	79.7	67.5	54.7	> 100	72.3	> 100	> 100	–	–	> 100	> 100	–	89.6
NCCCCN(CCCN)Cc1ccc2ccccc2c1	> 100	> 100	> 100	27.3	> 100	> 100	> 100	> 100	> 100	> 100	> 100	55.2	> 100	> 100	–	> 100	22.8	> 100	> 100	37.6
CCC1c2[nH]c3ccccc3c2C[C@H]2C(=O)N3CCC[C@H]3C(=O)N12 (some centres undefined)	> 100	> 100	> 100	> 100	> 100	> 100	> 100	> 100	> 100	> 100	> 100	–	> 100	–	> 100	> 100	–	> 100	> 100	> 100
CC(CO)(CBr)COC(=O)c1cc(Br)c(N)c(Br)c1 (centres undefined)	> 100	> 100	> 100	> 100	> 100	> 100	45.9	> 100	–	> 100	> 100	–	> 100	> 100	> 100	> 100	–	> 100	> 100	–
C/C(=N\Nc1nc2ccccc2s1)c1cnccn1	> 100	> 100	5	31.9	> 36.8	–	> 28.3	15.2	43.7	–	1.38	15	5.86	36.7	49.9	> 27.7	> 31.3	> 100	> 60.6	2.92
C[C@@H](CO)C1=CC(C#C[Si](C)(C)C)N(C(=O)Oc2ccccc2)c2ccccc21 (some centres undefined)	31.8	48.1	53.7	29.9	29	57.2	24.6	34.1	–	> 100	44	37.4	35	41.6	35.3	56.3	36.1	38.3	21.9	33.9
